Reference: patent publication EP0782989A1, “INDOLE DERIVATIVES” (KYOWA HAKKO KOGYO CO., LTD., priority 1995, dated 1997)
Where a name gives a salt, the structure may show the parent alone.

What was measured:
ovariectomized rats [1] = assay: Inhibitory effect on the increase of urinary hydroxyproline excretion by ovariectomy; format: in vivo, SD strain rats; conditions: Rattus norvegicus, po, 336 h; 10 mg/kg orally once a day for two weeks after ovariectomy; hydroxyproline/creatinine molar ratio in 24 hours urine; read-out: Inhibition rate of increase of the amount of urinary hydroxyproline excretion
Experimental: The inhibitory effect of the compounds of the present application on bone resorption was also determined by their inhibitory effect on the excretion of urinary hydroxyproline which is elevated by ovariectomy of the animals tested, according to the report of Kalu et al. [Bone and Mineral., 14, 175 (1991)].
Test Example 2: Inhibitory effect on the increase of urinary hydroxyproline excretion by ovariectomy
12-weeks-old female SD strain rats (Japan Clea Co., Ltd.) were acclimated for 1 week during which they were given tap water and a standard diet (F2; Funabashi Farmas) ad libitum. The experiment was carried out using the rats weighing 270-310 g. After the animals were subjected to sham operation or bilateral ovariectomy, they were allowed free access to water passed through ion exchange resin instead of tap water, and were housed in individual cages. The test compound (10 mg/kg) was suspended in 0.3% Tween or 0.5% methylcellulose, and the obtained suspension was orally administered to the ovariectomized rats once a day for two weeks starting from the day following ovariectomy (0.5 ml/100 g body weight). 0.3% Tween or 0.5% methylcellulose was similarly administered to sham-operated rats and ovariectomized control rats. After the final administration, the rats were placed in individual metabolic cages and fasted during 24 hours, and urine was collected. The volume of the collected urine was measured and the urine was centrifuged at 3,000 rpm for 15 min at 4°C. The concentration of hydroxyproline in the supernatant was measured by the method of Ikeda et al. [Ann. […] P. H., 36, 277-282 (1985)] and the concentration of creatinine in the supernatant was measured with creatinine test WAKO (Wako Pure Chem.) The amount of urinary hydroxyproline excretion was expressed by the molar ratio of the amount of hydroxyproline to the amount of creatinine. The rate of inhibition on increase of the amount of urinary hydroxyproline excretion in ovariectomized rats treated with the test compound compared to that of the control group was calculated using the following equation. Inhibition rate (%) = [(P1 - P2)/(P1 - P3)] x 100 [formula] • P1 : The amount of urinary hydroxyproline excretion in ovariectomized rats treated with 0.3% Tween (µmol/mmol). • P2 : The amount of urinary hydroxyproline excretion in ovariectomized rats treated with the test compound (µmol/mmol). • P3 : The amount of urinary hydroxyproline in sham-operated rats treated with 0.3% Tween (µmol/mmol).

PTH enhanced bone = assay: Inhibitory effect on bone absorption (calcium liberation from PTH enhanced cultured calvaria); format: cell-based, newborn dd mouse; conditions: Mus musculus; calvaria culture with PTH 1 x 10^-8M, 96 hours, total calcium in the culture; test compound 3 x 10^-6M, 1 x 10^-5M, 3 x 10^-5M
Experimental: Test Example 1: Inhibitory effect on bone absorption The calvaria was excised from a newborn dd mouse (5 to 6 days old) under sterile conditions. The calvaria was washed with a modified Dulbecco phosphate buffer physiological saline solution containing neither calcium nor magnesium (a product of Gibco Oriental), and divided into two parts along the center suture. A half of the calvaria was cultivated in a modified Dulbecco Eagle medium (1.5 ml) (a product of Gibco Oriental) containing 2.5% fetal calf serum and 15% equine serum which had been inactivated by heating at 56°C for 20 minutes. The test compound was dissolved in dimethyl sulfoxide and 10 μl of the resulting solution was added to the culture medium to give the final concentrations of 3 x 10^-6M, 1 x 10^-5M, and 3 x 10^-5M. PTH (parathyroid hormone) was dissolved in a 0.15 M saline solution (pH 3) and 3 μl of the resulting solution was added to the culture medium to give the final concentration of 1 x 10^-8M. The culturing was carried out under the condition of 95% air and 5% carbon dioxide and at a temperature of 37°C for 96 hours. At 48 hours after the start of the culturing, the culture medium was renewed and the test compound and PTH treated as defined above were added thereto. For examining the effect of the test compound on calcium liberation (bone absorption) from the PTH enhanced bone, a control group, a group using PTH (1 x 10^-8M), and a group using both the test compound (3 […]) and PTH were prepared. The amount of the bone absorption was determined by measuring the amount of calcium accumulated in the culture as collected after 96 hours of culturing. The total calcium concentration in the culture was measured with Calcium C Test Wako. The inhibition rate was calculated using the following equation and the result was shown in terms of 50% inhibitory concentration (IC50). Inhibition of bone absorption from PTH enhanced bone Inhibition rate (%) = [(CP - CD )/(CP - C0 )] x 100 [formula] • C0 : The total calcium concentration in the culture containing neither the test compound nor PTH. • CP : The total calcium concentration in the culture treated with only PTH. • CD : The total calcium concentration in the culture treated with both the test compound and PTH.

ovariectomized rats [2] = assay: Inhibitory effect on decrease of bone density by ovariectomy (tibia, DEXA); format: in vivo, SD strain rats; conditions: 10 mg/kg orally once a day for 6 weeks
Experimental: Test Example 3: Inhibitory effect on decrease of bone density by ovariectomy
The experiment was carried out using 13-weeks-old female SD strain rats (Japan Crea Co. Ltd.) The animals were subjected to sham operation or bilateral ovariectomy under Nembutal anesthesia. The test compound (10 mg/kg) was dissolved or suspended in 0.5% methylcellulose (Shin-Etsu Chemical Co., Ltd.) and administered orally once a day from the first day after the operation for 6 weeks. For the sham-operated group and the ovariectomized control group, 0.5% methylcellulose (Shin-Etsu Chemical Co., Ltd.) was administered orally. The rat was slaughtered by femoral artery bleeding, the right hindlimb was ablated, and then the bone mineral content (BMC) and bone density (BD) of the tibia was measured according to a DEXA (DXA) method [Japan Clinic, 52 (9), 2329-2334 (1994)] using bone mineral measuring apparatus DCS-600 (Aloka Co., Ltd.). Tibial BMC and BD in the sham-operated, ovariectomized control, and test compound-treated ovariectomized group are shown in Table 4.

Structure (SMILES)	IC50 (PTH enhanced bone)	inhibition in vivo at 10 mg/kg (ovariectomized rats [1])	BD (mg/cm^2) (ovariectomized rats [2]; tibia bone density)	BMC (ovariectomized rats [2]; tibia bone mineral content)
O=C(c1c(C(c2ccccc2)c2ccccc2)c2ccccc2n1CCN1CCCC1)N1CCN(c2ccccc2Cl)CC1 [Compound 4, 2-[4-(2-Chlorophenyl)piperazinylcarbonyl]-3-(diphenylmethyl)-1-(2-pyrrolidinylethyl)indole]	–	43%	–	–
CN(C)CCn1c(C(=O)O)c(C(c2ccccc2)c2ccccc2)c2ccccc21 [Compound 6, 1-(2-Dimethylaminoethyl)-3-(diphenylmethyl)indole-2-carboxylic acid]	–	100%	–	–
CN(C)CCn1c(C(=O)NC2CCCCCC2)c(C(c2ccccc2)c2ccccc2)c2ccccc21 [Compound 11, N-Cycloheptyl-1-(2-dimethylaminoethyl)-3-(diphenylmethyl)indole-2-carboxamide]	17.5 µM	100%	–	–
CN(C)CCn1c(C(=O)N2CCOCC2)c(C(c2ccccc2)c2ccccc2)c2ccccc21 [Compound 13, 1-(2-Dimethylaminoethyl)-3-(diphenylmethyl)-2-(morpholinocarbonyl)indole]	11.2 µM	–	–	–
CN(C)CCn1c(C(=O)N2CCN(Cc3ccccc3)CC2)c(C(c2ccccc2)c2ccccc2)c2ccccc21 [Compound 15, 2-(4-Benzylpiperazinylcarbonyl)-1-(2-dimethylaminoethyl)-3-(diphenylmethyl)indole]	14.3 µM	100%	–	–
CN(C)CCn1c(C(=O)NCCCN2CCOCC2)c(C(c2ccccc2)c2ccccc2)c2ccccc21 [Compound 20, N-(3-Morpholinopropyl)-1-(2-dimethylaminoethyl)-3-(diphenylmethyl)indole-2-carboxamide]	3.7 µM	100%	–	–
CN(C)CCn1c(C(=O)NCCCN2CCCC2=O)c(C(c2ccccc2)c2ccccc2)c2ccccc21 [Compound 21, N-[3-(2-Oxopyrrolidinyl)propyl]-1-(2-dimethylaminoethyl)-3-(diphenylmethyl)indole-2-carboxamide]	14.3 µM	100%	126.95 ± 1.78 mg/cm^2	268.81 ± 7.38 mg
CN(C)CCn1c(C(=O)NC2CC2)c(C(c2ccccc2)c2ccccc2)c2ccccc21 [Compound 51, N-Cyclopropyl-1-(2-dimethylaminoethyl)-3-(diphenylmethyl)indole-2-carboxamide hydrochloride]	–	70%	–	–
O=C(NCCN1CCCCC1)c1c(C(c2ccccc2)c2ccccc2)c2ccccc2n1CCN1CCCC1 [Compound 62, N-(2-Piperidinoethyl)-3-(diphenylmethyl)-1-(2-pyrrolidinylethyl)indole-2-carboxamide 2 hydrochloride]	18.1 µM	53%	–	–
CCOC(=O)c1c(C(c2ccccc2)c2ccccc2)c2ccccc2n1CCCN(C)C [Compound 64, Ethyl 1-(3-dimethylaminopropyl)-3-(diphenylmethyl)indole-2-carboxylate]	16.7 µM	77%	–	–
CCCc1ccc(NC(=O)c2c(C(c3ccc(Cl)cc3)c3ccc(Cl)cc3)c3ccccc3n2CCN(C)C)cc1 [Compound 97, N-(4-propylphenyl)-3-[bis(4-chlorophenyl)methyl]-1-(2-dimethylaminoethyl)indole-2-carboxamide hydrochloride]	14.3 µM	40%	–	–
CCOC(=O)c1c(C(c2ccc(C)cc2)c2ccc(C)cc2)c2ccccc2n1CCN1CCCCC1 [Compound 98, Ethyl 3-[bis(4-methylphenyl)methyl]-1-(2-piperidinoethyl)indole-2-carboxylate]	–	47%	–	–
CN(C)CCn1c(C(=O)NCCCN2CCOCC2)c(C(c2ccccc2)c2ccc(O)cc2)c2ccccc21 (centres unmarked) [Compound 121, N-(3-Morpholinopropyl)-1-(2-dimethylaminoethyl)-3-(4-hydroxybenzhydryl)indole-2-carboxamide 2 hydrochloride]	–	59%	–	–

The next lines start with results.

IC50 (PTH enhanced bone)	Structure (SMILES)	inhibition in vivo at 10 mg/kg (ovariectomized rats [1])	BD (mg/cm^2) (ovariectomized rats [2]; tibia bone density)	BMC (ovariectomized rats [2]; tibia bone mineral content)
14.3 µM	CC(C)NC(=O)c1c(C(c2ccccc2)c2ccccc2)c2ccccc2n1CCN(C)C [Compound 8, N-Isopropyl-1-(2-dimethylaminoethyl)-3-(diphenylmethyl)indole-2-carboxamide]	100%	–	–
9.1 µM	CN(C)CCn1c(C(=O)N2CCCCC2)c(C(c2ccccc2)c2ccccc2)c2ccccc21 [Compound 10, 1-(2-Dimethylaminoethyl)-3-(diphenylmethyl)-2-(piperidinocarbonyl)indole]	–	–	–
10.9 µM	CN(C)CCn1c(C(=O)N2CCN(c3ccccc3)CC2)c(C(c2ccccc2)c2ccccc2)c2ccccc21 [Compound 14, 1-(2-Dimethylaminoethyl)-3-(diphenylmethyl)-2-(4-phenylpiperazinylcarbonyl)indole]	–	–	–
13.7 µM	CN(C)CCn1c(C(=O)NCCCn2ccnc2)c(C(c2ccccc2)c2ccccc2)c2ccccc21 [Compound 22, N-[3-(1-Imidazolyl)propyl]-1-(2-dimethylaminoethyl)-3-(diphenylmethyl)indole-2-carboxamide]	87%	–	–
13 µM	CNC(=O)c1c(C(c2ccccc2)c2ccccc2)c2ccccc2n1CCN(C)C [Compound 56, N-Methyl-1-(2-dimethylaminoethyl)-3-(diphenylmethyl)indole-2-carboxamide hydrochloride]	57%	–	–
10.8 µM	CC(C)NC(=O)c1c(C(c2ccccc2)c2ccc(O)cc2)c2ccccc2n1CCN(C)C (centres unmarked) [Compound 119, N-Isopropyl-1-(2-dimethylaminoethyl)-3-(4-hydroxybenzhydryl)indole-2-carboxamide hydrochloride]	–	–	–
10.5 µM	CCCc1ccc(NC(=O)c2c(C(c3ccccc3)c3ccc(O)cc3)c3ccccc3n2CCN(C)C)cc1 (centres unmarked) [Compound 120, N-(4-Propylphenyl)-1-(2-dimethylaminoethyl)-3-(4-hydroxybenzhydryl)indole-2-carboxamide hydrochloride]	–	–	–
